Laboratory results published in PMC10791743, “Selective CK1α degraders exert antiproliferative activity against a broad range of human cancer cell lines” (Nature Communications, 2024).

Legend:
Assay in all cases: cells
Parameters in all cases: Oncolines panel cell viability, ATPlite 1Step luminescence, duplicate 9-point dose response, IC50
Kasumi-1 = details: Homo sapiens, Kasumi 1; 72 h viability; read-out: SJ3149
MeWo = details: Homo sapiens, MeWo; 72 h viability; read-out: SJ3149
NCI-H82 = details: Homo sapiens, NCI-H82; 72 h viability; read-out: SJ3149
SW620 = details: Homo sapiens, SW-620; 72 h viability; read-out: SJ3149
CAL 27 = details: Homo sapiens, CAL-27; 72 h viability; read-out: SJ3149
T24 = details: Homo sapiens, T-24; 72 h viability; read-out: SJ3149
Hs 578T = details: Homo sapiens, Hs-578T; 72 h viability; read-out: SJ3149
CCF-STTG1 = details: Homo sapiens, CCF-STTG1; 72 h viability; read-out: SJ3149
AsPC-1 = details: Homo sapiens, ASPC1; 72 h viability; read-out: SJ3149
HCT 116 = details: Homo sapiens, HCT-116; 72 h viability; read-out: SJ3149
AN3 CA = details: Homo sapiens, AN3-CA; 72 h viability; read-out: SJ3149
DLD-1 = details: Homo sapiens, DLD-1; 72 h viability; read-out: SJ3149
DB = details: Homo sapiens, DB; 72 h viability; read-out: SJ3149
TCCSUP = details: Homo sapiens, TCC-SUP; 72 h viability; read-out: SJ3149
SK-N-AS = details: Homo sapiens, SK-N-AS; 72 h viability; read-out: SJ3149

Measured: IC50

O=C1CCC(N2Cc3cc(Nc4noc5ccccc45)ccc3C2=O)C(=O)N1 (stereo not drawn) [SJ3149]
> 31.6 µM: all assays above
